According to patent publication US11236120B2, “Azithromycin derivatives with epithelial barrier enhancement properties” (EpiEndo Pharmaceuticals ehf, priority 2015, dated 2022):
≈ marks a conversion by molar mass, not a printed value.

How the values were obtained:
[1] = Solubility in 10 mM phosphate buffer (pH 7.4); type: physicochemical; details: pH 7.4, aqueous buffer, kinetic from dmso stock, 60 minutes at room temperature, filtered, read-out: MTS Solubility in Buffer (pH 7.4)
Method: Solubility in 10 mM Phosphate Buffer (pH 7.4)
The solubility sample testing of the compounds was performed by in phosphate buffer at pH 7.4 and using HPLC-MS detection. A stock solution of […] in DMSO was prepared for each compound. For the solubility test sample, 100 μL of the stock solution was diluted with 3.9 mL of a 10 mM phosphate buffer at […] to a final concentration of […]. The buffer solution was left to stand for 60 minutes at room temperature and then filtered. The filtrate was analyzed against two calibration points of the same analyte prepared at […] using HPLC-MS. These calibration points were prepared from the same stock solution as the solubility sample by diluting it with DMSO:H2O (1:1) 1:40 and then again 1:10. The chromatographic signal area of the analyte in the solubility sample was then compared to the chromatographic signal area of the two calibration samples.
(§1) The chromatographic separation was performed on a Waters HPLC-MS system using a 50×2.1 mm×Bridge C18 column and a gradient elution of Water with 0.1% formic acid and acetonitrile with 0.1% formic acid. The analytes were analyzed in positive electro-spray mode using the (M+H)^+ in single ion recording.

[2] = Stability in human plasma; type: in vitro ADME; details: room temperature
Method: (§2) Stability in Mouse and Human Plasma
(§3) The stability of the compounds in mouse and human plasma was performed using protein precipitation as sample clean-up and HPLC-MS detection. The plasma stability studies of the compounds was performed at room temperature for up to 4 hours. A stock solution of […] in DMSO was prepared for each compound. For the plasma stability samples, 100 μL of the stock solution was diluted with 3.9 mL of either mouse or human plasma to a final concentration of […]. The plasma was left to equilibrate for 10 minutes at room temperature before the first analysis. For each analyzed time point ([…]) a 100 μL aliquot of the plasma was removed and protein precipitation (PPT) was performed on the aliquot by adding 900 μL of (ACN:DMSO) 95:5. The precipitated sample was shaken for 60 seconds and then centrifuged. The supernatant was transferred to an HPLC vial and analyzed using HPLC-MS. The chromatographic signal area of the samples at the different time points were then compared against each other, by setting the initial analysis at t=0 min as 100% and then calculating the %-value for each subsequent time point.
as §1

[3] = Stability in mouse plasma; type: in vitro ADME; details: room temperature
Method: as §2, §3, §1

| SMILES | solubility at 60 min [1] | Degradation in Human Plasma at RT [2] | Degradation in Mouse Plasma at RT [3] |
| --- | --- | --- | --- |
| CC[C@H]1OC(=O)[C@H](C)[C@@H](O)[C@H](C)[C@@H](O[C@@H]2O[C@H](C)C[C@H](N(C)C)[C@H]2OC(=O)c2ccc(-c3ccc(S(C)(=O)=O)cc3)cc2)[C@](C)(O)C[C@@H](C)CN(C)[C@H](C)[C@@H](O)[C@]1(C)O [Example 12, [(2S,3R,4S,6R)-4-(dimethylamino)-2-[[(2R,3S,4R,5R,8R,10R,11R,12S,13S,14R)-2-ethyl-3,4,10,13-tetrahydroxy-3,5,6,8,10,12,14-heptamethyl-15-oxo-1-oxa-6-azacyclopentadec-11-yl]oxy]-6-methyl-tetrahydropyran-3-yl]4-(4-methylsulfonylphenyl) benzoate] | 0.3 µM (≈ 0.255 µg/mL) | 2 % per hour | 2 % per hour |
| CC[C@H]1OC(=O)[C@H](C)[C@@H](O)[C@H](C)[C@@H](O[C@@H]2O[C@H](C)C[C@H](N(C)C(=O)Cc3ccccc3)[C@H]2O)[C@](C)(O)C[C@@H](C)CN(C)[C@H](C)[C@@H](O)[C@]1(C)O [Example 29, N-[(2S,3R,4S,6R)-2-[[(2R,3S,4R,5R,8R,10R,11R,12S,13S,14R)-2-ethyl-3,4,10,13-tetrahydroxy-3,5,6,8,10,12,14-heptamethyl-15-oxo-1-oxa-6-azacyclopentadec-11-yl]oxy]-3-hydroxy-6-methyl-tetrahydropyran-4-yl]-N-methyl-2-phenyl-acetamide] | 0.77 µM (≈ 0.535 µg/mL) | 2 % per hour | Stable |
| CC[C@H]1OC(=O)[C@H](C)[C@@H](O)[C@H](C)[C@@H](O[C@@H]2O[C@H](C)C[C@H](N(C)C(=O)COCc3ccccc3)[C@H]2O)[C@](C)(O)C[C@@H](C)CN(C)[C@H](C)[C@@H](O)[C@]1(C)O [Example 26, 2-benzyloxy-N-[(2S,3R,4S,6R)-2-[[(2R,3S,4R,5R,8R,10R,11R,12S,13S,14R)-2-ethyl-3,4,10,13-tetrahydroxy-3,5,6,8,10,12,14-heptamethyl-15-oxo-1-oxa-6-azacyclopentadec-11-yl]oxy]-3-hydroxy-6-methyl-tetrahydropyran-4-yl]-N-methyl-acetamide] | 0.3 µM (≈ 0.217 µg/mL) | Stable | 4 % per hour |
| CC[C@H]1OC(=O)[C@H](C)[C@@H](O)[C@H](C)[C@@H](O[C@@H]2O[C@H](C)C[C@H](N(C)C(=O)CCOc3ccccc3)[C@H]2O)[C@](C)(O)C[C@@H](C)CN(C)[C@H](C)[C@@H](O)[C@]1(C)O [Example 28, N-[(2S,3R,4S,6R)-2-[[(2R,3S,4R,5R,8R,10R,11R,12S,13S,14R)-2-ethyl-3,4,10,13-tetrahydroxy-3,5,6,8,10,12,14-heptamethyl-15-oxo-1-oxa-6-azacyclopentadec-11-yl]oxy]-3-hydroxy-6-methyl-tetrahydropyran-4-yl]-N-methyl-3-phenoxy-propanamide] | 1.42 µM (≈ 1.03 µg/mL) | Stable | Stable |
| CC[C@H]1OC(=O)[C@H](C)[C@@H](O)[C@H](C)[C@@H](O[C@@H]2O[C@H](C)C[C@H](N(C)C(=O)CCC(=O)O)[C@H]2O)[C@](C)(O)C[C@@H](C)CN(C)[C@H](C)[C@@H](O)[C@]1(C)O [Example 18, 4-[[(2S,3R,4S,6R)-2-[[(2R,3S,4R,5R,8R,10R,11R,12S,13S,14R)-2-ethyl-3,4,10,13-tetrahydroxy-3,5,6,8,10,12,14-heptamethyl-15-oxo-1-oxa-6-azacyclopentadec-11-yl]oxy]-3-hydroxy-6-methyl-tetrahydropyran-4-yl]-methyl-amino]-4-oxo-butanoic acid] | 0.4 µM (≈ 0.271 µg/mL) | Stable |  |
| CCc1ccc(C(=O)O[C@H]2[C@H](O[C@@H]3[C@@H](C)[C@H](O)[C@@H](C)C(=O)O[C@H](CC)[C@@](C)(O)[C@H](O)[C@@H](C)N(C)C[C@H](C)C[C@@]3(C)O)O[C@H](C)C[C@@H]2N(C)C)cc1 [Example 22, [(2S,3R,4S,6R)-4-(dimethylamino)-2-[[(2R,3S,4R,5R,8R,10R,11R,12S,13S,14R)-2-ethyl-3,4,10,13-tetrahydroxy-3,5,6,8,10,12,14-heptamethyl-15-oxo-1-oxa-6-azacyclopentadec-11-yl]oxy]-6-methyl-tetrahydropyran-3-yl]4-ethylbenzoate] | 1.43 µM (≈ 1.03 µg/mL) | Stable | Stable |
| CC[C@H]1OC(=O)[C@H](C)[C@@H](O)[C@H](C)[C@@H](O[C@@H]2O[C@H](C)C[C@H](NC)[C@H]2O)[C@](C)(O)C[C@@H](C)CN(C)[C@H](C)[C@@H](O)[C@]1(C)O [Example 30, (2R,3S,4R,5R,8R,10R,11R,12S,13S,14R)-2-ethyl-3,4,10,13-tetrahydroxy-11-[(2S,3R,4S,6R)-3-hydroxy-6-methyl-4-(methylamino)tetrahydropyran-2-yl]oxy-3,5,6,8,10,12,14-heptamethyl-1-oxa-6-azacyclopentadecan-15-one] | 0.49 µM (≈ 0.283 µg/mL) | Stable | Stable |
| CC[C@H]1OC(=O)[C@H](C)[C@@H](O)[C@H](C)[C@@H](O[C@@H]2O[C@H](C)C[C@H](N(C)C(=O)c3ccccc3)[C@H]2O)[C@](C)(O)C[C@@H](C)CN(C)[C@H](C)[C@@H](O)[C@]1(C)O [Example 7, N-[(2S,3R,4S,6R)-2-[[(2R,3S,4R,5R,8R,10R,11R,12S,13S,14R)-2-ethyl-3,4,10,13-tetrahydroxy-3,5,6,8,10,12,14-heptamethyl-15-oxo-1-oxa-6-azacyclopentadec-11-yl]oxy]-3-hydroxy-6-methyl-tetrahydropyran-4-yl]-N-methyl-benzamide] | 0.23 µM (≈ 0.157 µg/mL) | Stable |  |
| CC[C@H]1OC(=O)[C@H](C)[C@@H](O)[C@H](C)[C@@H](O[C@@H]2O[C@H](C)C[C@H](N(C)C)[C@H]2OC(=O)CCC(=O)O)[C@](C)(O)C[C@@H](C)CN(C)[C@H](C)[C@@H](O)[C@]1(C)O [Example 17, 4-[(2S,3R,4S,6R)-4-(dimethylamino)-2-[[(2R,3S,4R,5R,8R,10R,11R,12S,13S,14R)-2-ethyl-3,4,10,13-tetrahydroxy-3,5,6,8,10,12,14-heptamethyl-15-oxo-1-oxa-6-azacyclopentadec-11-yl]oxy]-6-methyl-tetrahydropyran-3-yl]oxy-4-oxo-butanoic acid] | 0.66 µM (≈ 0.456 µg/mL) | 20 % per hour | ca. 20% per hour |
| CC[C@H]1OC(=O)[C@H](C)[C@@H](O)[C@H](C)[C@@H](O[C@@H]2O[C@H](C)C[C@H](N(C)C)[C@H]2OC(=O)c2ccc3ccccc3c2)[C@](C)(O)C[C@@H](C)CN(C)[C@H](C)[C@@H](O)[C@]1(C)O [Example 24, [(2S,3R,4S,6R)-4-(dimethylamino)-2-[[(2R,3S,4R,5R,8R,10R,11R,12S,13S,14R)-2-ethyl-3,4,10,13-tetrahydroxy-3,5,6,8,10,12,14-heptamethyl-15-oxo-1-oxa-6-azacyclopentadec-11-yl]oxy]-6-methyl-tetrahydropyran-3-yl]naphthalene-2-carboxylate] | 2.4 µM (≈ 1.79 µg/mL) | Stable | Stable |
| CC[C@H]1OC(=O)[C@H](C)[C@@H](O)[C@H](C)[C@@H](O[C@@H]2O[C@H](C)C[C@H](N(C)C(=O)CNC(=O)OCc3ccccc3)[C@H]2O)[C@](C)(O)C[C@@H](C)CN(C)[C@H](C)[C@@H](O)[C@]1(C)O [Example 27, Benzyl N-[2-[[(2S,3R,4S,6R)-2-[[(2R,3S,4R,5R,8R,10R,11R,12S,13S,14R)-2-ethyl-3,4,10,13-tetrahydroxy-3,5,6,8,10,12,14-heptamethyl-15-oxo-1-oxa-6-azacyclopentadec-11-yl]oxy]-3-hydroxy-6-methyl-tetrahydropyran-4-yl]-methyl-amino]-2-oxo-ethyl]carbamate] | 0.3 µM (≈ 0.23 µg/mL) | Stable | 3 % per hour |
